These results are taken from ChEMBL document CHEMBL1151092, “Novel 4-substituted pyridine derivatives: Practical derivatization and biological profiles of reversible inhibitors” (Bioorg Med Chem Lett, 1997).

Type in all cases: tissue-based
The target of test [1] is Potassium-transporting ATPase (Sus scrofa, UniProt P19156). The test can be described thus: The compound was tested for its inhibitory activity against H+/K+ ATPase by using hog stomach membrane fractions (pH 6.4).
Test [2] deals with T1, Potassium-transporting ATPase (Sus scrofa) (UniProt P18434+P19156). The test can be described thus: The compound was tested for its inhibitory activity against H+/K+ ATPase by using hog stomach membrane fractions (pH 6.4) at 4 uM.
Test [3] concerns the target T1, Potassium-transporting ATPase (Sus scrofa). The test can be described thus: The compound was tested for its inhibitory activity against H+/K+ ATPase by using hog stomach membrane fractions at 8 uM.
Test [4] has the same target. As to the kind of experiment: The compound was tested for its inhibitory activity against H+/K+ ATPase by using hog stomach membrane fractions at 10 uM.
For test [5] the target is unchanged. The test can be described thus: The compound was tested for its inhibitory activity against H+/K+ ATPase by using hog stomach membrane fractions at 4 uM.

Chain of Potassium-transporting ATPase (P18434 whole entry): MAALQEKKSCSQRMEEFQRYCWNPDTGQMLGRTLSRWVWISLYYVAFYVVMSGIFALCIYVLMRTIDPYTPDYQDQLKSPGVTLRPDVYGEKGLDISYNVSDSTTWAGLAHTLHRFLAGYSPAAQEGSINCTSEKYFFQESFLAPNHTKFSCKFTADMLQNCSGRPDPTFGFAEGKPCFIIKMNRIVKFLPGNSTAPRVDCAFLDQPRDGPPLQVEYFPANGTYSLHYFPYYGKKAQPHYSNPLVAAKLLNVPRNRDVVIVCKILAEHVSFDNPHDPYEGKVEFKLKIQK
Chain of Potassium-transporting ATPase (P19156 whole entry): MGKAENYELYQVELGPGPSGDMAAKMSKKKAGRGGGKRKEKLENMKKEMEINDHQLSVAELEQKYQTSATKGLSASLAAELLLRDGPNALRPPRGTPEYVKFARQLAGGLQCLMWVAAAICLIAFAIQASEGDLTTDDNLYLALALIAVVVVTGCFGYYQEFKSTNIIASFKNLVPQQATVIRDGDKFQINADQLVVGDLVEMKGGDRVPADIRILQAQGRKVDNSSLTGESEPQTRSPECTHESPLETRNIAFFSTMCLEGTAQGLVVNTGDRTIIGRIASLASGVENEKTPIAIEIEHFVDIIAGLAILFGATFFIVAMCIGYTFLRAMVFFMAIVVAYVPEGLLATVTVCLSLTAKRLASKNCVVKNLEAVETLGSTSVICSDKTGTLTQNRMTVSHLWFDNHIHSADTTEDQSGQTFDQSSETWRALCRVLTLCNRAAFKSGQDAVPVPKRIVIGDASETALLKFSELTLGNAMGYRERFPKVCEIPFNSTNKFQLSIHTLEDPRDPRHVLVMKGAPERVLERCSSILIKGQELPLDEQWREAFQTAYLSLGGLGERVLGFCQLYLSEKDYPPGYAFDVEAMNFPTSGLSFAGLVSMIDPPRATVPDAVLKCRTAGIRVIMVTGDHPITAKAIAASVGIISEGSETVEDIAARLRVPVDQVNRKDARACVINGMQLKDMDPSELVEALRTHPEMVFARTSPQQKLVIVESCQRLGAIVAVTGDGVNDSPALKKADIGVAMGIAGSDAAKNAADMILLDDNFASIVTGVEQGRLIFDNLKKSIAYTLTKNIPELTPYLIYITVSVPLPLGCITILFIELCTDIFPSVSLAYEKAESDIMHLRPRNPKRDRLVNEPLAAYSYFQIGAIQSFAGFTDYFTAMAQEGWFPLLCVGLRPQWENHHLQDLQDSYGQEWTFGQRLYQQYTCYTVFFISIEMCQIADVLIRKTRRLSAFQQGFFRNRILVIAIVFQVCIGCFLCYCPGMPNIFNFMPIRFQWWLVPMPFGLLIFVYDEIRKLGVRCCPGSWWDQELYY

Broadly, the IC50 is the point on the concentration scale where inhibition reaches its midpoint. High values mean weaker potency, low ones greater potency. Consider `Cc1cnc(C(CO)Cc2cccc3ccccc23)cc1OCc1ccccc1O` (stereo unspecified), for which half-maximal inhibition in test [1] (IC50) required 1800 nM. The same measure, in the same setting: for `Cc1cnc(C(CO)Cc2cccc3ccccc23)cc1OC1CCCCC1` (stereo unspecified) the value was 500 nM. Usually inhibition stands for the change of the read-out against control, counted positive when it falls. Higher therefore signals strong suppression. On to `CC#CCOc1cc(C(CO)Cc2cccc3ccccc23)ncc1C` (stereo unspecified), for which the inhibition in test [2] was determined as 22%. In test [3], `Cc1cnc(C(CO)Cc2cccc3ccccc23)cc1OCCOc1ccccc1` (stereo unspecified) registered an inhibition of 27%. As to `Cc1cnc(/C(=C\c2cccc3ccccc23)CO)cc1OCc1ccccc1O`, the midpoint of inhibition in test [1], the IC50, lay at 900 nM.

`Cc1cnc(C(CO)Cc2cccc3ccccc23)cc1Oc1ccccc1` (stereo unspecified) returned an inhibition in test [4] of 36%.

In turn, `COc1ccccc1COc1cc(/C(=C\c2cccc3ccccc23)CO)ncc1C` displayed a concentration for half-maximal inhibition (IC50) in test [1] of 1700 nM. Compound `Cc1cnc(C(CO)Cc2cccc3ccccc23)cc1OCC(C)(C)C` (stereo unspecified) came in with a 50% inhibitory concentration (IC50) in test [1] of 600 nM. Still for that read-out and setting: for `Cc1cnc(C(CO)Cc2cccc3ccccc23)cc1OCC1CCCCC1` (stereo unspecified) the value was 3100 nM; for `CC(C)=CCOc1cc(C(CO)Cc2cccc3ccccc23)ncc1C` (stereo unspecified), 3000 nM. Regarding `Cc1cnc(C(CO)Cc2cccc3ccccc23)cc1OCc1ccccn1` (stereo unspecified), the inhibition in test [5] came to 21%.
